Measurements as given in patent publication US20130130317A1, “METHOD FOR PRODUCING SUBSTANCE” (KYOWA HAKKO KIRIN CO., LTD, priority 2010, published 2013).
In brackets after ≈: the same amount, converted by molar mass. Each block holds one compound with its values, some of them ahead of it. Peptide text beside a SMILES is read from it.

Key:
[1] = Precipitation in media for cell culture on storage; type: physicochemical; conditions: 5.0 mmol/L in medium, stored at 4° C., after 3 days; for precipitation in the medium for cell culture: 20° C. or room temperature
Description: The following media for cell culture were prepared to compare differences in precipitation therebetween.
In 700 mL of water, 31.6 g of AGT Efficient Feed A (manufactured by Invitrogen, Catalog No. AG090231P7), 0.50 mL of polyamine solution (manufactured by Invitrogen, Catalog No. AG090232P8), 27.2 g of AGT Efficient Feed B (manufactured by Invitrogen, Catalog No. AG090230P7), 30.0 g of Hydrolysate (manufactured by DMV, Catalog No. P42474), 70.0 g of glucose (manufactured by Wako Pure Chemical Industries, Catalog No. 041-00595), and 5.0 g of L-(+)-glutamine (manufactured by Wako Pure Chemical Industries, Catalog No. 078-00525) or 7.4 g of L-alanyl-L-glutamine (manufactured by Kyowa Hakko Bio) were mixed.
After stirring for approximately 30 minutes, 7.0 mL of 5 mol/L HCl aqueous solution (manufactured by Wako Pure Chemical Industries, Catalog No. 081-05435) was added, followed by further stirring for approximately 20 minutes and pH was adjusted to 6.5. Thereafter, 50 mL of an alkaline solution containing 0.5 mol/L of NaOH (manufactured by Junsei Chemical, Catalog No. 39155-0301), 100 mmol/L of L-tyrosine disodium salt (manufactured by Sigma, Catalog No. T1145-100G), and 100 mmol/L of L-cystine dihydrochloride (manufactured by Wako Pure Chemical Industries, Catalog No. 034-05322) was added to the prepared aqueous solution of pH 6.5.
A volume of the aqueous solution was adjusted to 1 L with water, followed by stirring for approximately 20 minutes so as to prepare a medium for cell culture. In the medium for cell culture, L-tyrosine disodium salt and L-cystine dihydrochloride were substituted with the same concentration (5.0 mmol/L) of L-alanyl-L-tyrosine (manufactured by Kyowa Hakko Bio) and bis-L-alanyl-L-cysteine (manufactured by Kyowa Hakko Bio) to prepare media for cell culture, respectively. The prepared media for cell culture were stored under three conditions of at 4° C. (refrigerator, manufactured by Hoshizaki), 20° C. (e-Cooling Bucket, manufactured by Taitec), or room temperature.

[2] = tested on: antibody X-expressing CHO cells; test: Fed-batch culture of CHO cells: number of living cells and survival rate; type: cell-based, Chinese hamster; conditions: 13 days of culture
Description: The following feed media for cell culture were prepared, and fed-batch culture was carried out using CHO cells for comparison.
(§1) The feed medium was composed of 31.6 g/L of AGT Efficient Feed A (manufactured by Invitrogen, Catalog No. AG090231P7), 0.50 ml/L of polyamine solution (manufactured by Invitrogen, Catalog No. AG090232P8), 27.2 g/L of AGT Efficient Feed B (manufactured by Invitrogen, Catalog No. AG090230P7), 5.0 g/L of L-(+)-glutamine (manufactured by Wako Pure Chemical Industries, Catalog No. 078-00525), 30.0 g/L of hydrolysates (manufactured by DMV, Catalog No. P42474), 70.0 g/L of glucose (manufactured by Wako Pure Chemical Industries, Catalog No. 041-00595), 5.0 mmol/L of L-alanyl-L-tyrosine (Kyowa Hakko Bio), and 5.0 mmol/L, 10 mmol/L or 16 mmol/L of bis-L-alanyl-L-cysteine (manufactured by Kyowa Hakko Bio), and prepared in the same manner as in Example 1.
(§2) In the culture using antibody X-expressing CHO cells, 4.0 mmol/L of glutamine (manufactured by Invitrogen, Catalog No. 25030)-containing EX-CELL325 (manufactured by SAFC, Catalog No. 14340C-1000mL) was used as a main culture medium. The feed medium was added to perform fed-batch culture.

[3] = tested on: antibody X-expressing CHO cells; test: Antibody titer in fed-batch culture of CHO cells; type: cell-based, Chinese hamster; conditions: 13 days of culture
Description: as §1, §2
In order to examine antibody production, antibody titer was measured at 13 days of culture in the fed-batch culture of CHO cells having an ability to produce the antibody of Example 2. In the feed medium, the […] 0.75 g/L at 5.0 mmol/L, 0.79 g/L at 10 mmol/L, and 0.78 g/L at 16 mmol/L.

[4] = cited from earlier work
[5] = H2O, 20° C.; cited from earlier work

Compound: C[C@H](N)C(=O)N[C@@H](Cc1ccc(O)cc1)C(=O)O [L-alanyl-L-tyrosine] (H-Ala-Tyr-OH)
precipitation in the medium for cell culture [1]: no precipitation

precipitation in the medium for cell culture [1]: precipitations were observed
precipitation in the medium, low temperature compared with other storage conditions [1]: more precipitation was observed
Compound: Cl.Cl.N[C@@H](CSSC[C@H](N)C(=O)O)C(=O)O [L-cystine dihydrochloride]

precipitation in the medium for cell culture [1]: no precipitation
Compound: C[C@H](N)C(=O)N(C(=O)[C@H](C)N)[C@@H](CS)C(=O)O [bis-L-alanyl-L-cysteine]
Number of living cells ([2]; 5 mmol/L in feed medium): 28.6 10^5 cells/mL
Survival rate ([2]; 5 mmol/L in feed medium): 55.0%
Number of living cells ([2]; 10 mmol/L in feed medium): 44.1 10^5 cells/mL
Survival rate ([2]; 10 mmol/L in feed medium): 78.7%
Number of living cells ([2]; 16 mmol/L in feed medium): 58.1 10^5 cells/mL
Survival rate ([2]; 16 mmol/L in feed medium): 86.6%
antibody titer ([3]; 5.0 mmol/L in feed medium): 0.75 g/L
antibody titer ([3]; 10 mmol/L in feed medium): 0.79 g/L
antibody titer ([3]; 16 mmol/L in feed medium): 0.78 g/L

Compound: Cl.N[C@@H](CS)C(=O)O [cysteine hydrochloride]
stability in an aqueous solution [4]: low stability

Compound: N[C@@H](CSSC[C@H](N)C(=O)O)C(=O)O [cystine]
solubility [5]: 100 µg/mL (≈ 416 µM)

Compound: L-tyrosine disodium salt
precipitation in the medium for cell culture [1]: precipitations were observed
precipitation in the medium, low temperature compared with other storage conditions [1]: more precipitation was observed
